The text below walks through data of patent US20250179055A1, “Substituted 2-(pyrrolidine-3-yl)acetic acid derivative, preparation method and use thereof” (INNOVSTONE THERAPEUTICS LIMITED, priority 2023, published 2025).

Chain of Lp(a) assembly in HepG2 cells overexpressing ApoA protein (P08519 20-2040): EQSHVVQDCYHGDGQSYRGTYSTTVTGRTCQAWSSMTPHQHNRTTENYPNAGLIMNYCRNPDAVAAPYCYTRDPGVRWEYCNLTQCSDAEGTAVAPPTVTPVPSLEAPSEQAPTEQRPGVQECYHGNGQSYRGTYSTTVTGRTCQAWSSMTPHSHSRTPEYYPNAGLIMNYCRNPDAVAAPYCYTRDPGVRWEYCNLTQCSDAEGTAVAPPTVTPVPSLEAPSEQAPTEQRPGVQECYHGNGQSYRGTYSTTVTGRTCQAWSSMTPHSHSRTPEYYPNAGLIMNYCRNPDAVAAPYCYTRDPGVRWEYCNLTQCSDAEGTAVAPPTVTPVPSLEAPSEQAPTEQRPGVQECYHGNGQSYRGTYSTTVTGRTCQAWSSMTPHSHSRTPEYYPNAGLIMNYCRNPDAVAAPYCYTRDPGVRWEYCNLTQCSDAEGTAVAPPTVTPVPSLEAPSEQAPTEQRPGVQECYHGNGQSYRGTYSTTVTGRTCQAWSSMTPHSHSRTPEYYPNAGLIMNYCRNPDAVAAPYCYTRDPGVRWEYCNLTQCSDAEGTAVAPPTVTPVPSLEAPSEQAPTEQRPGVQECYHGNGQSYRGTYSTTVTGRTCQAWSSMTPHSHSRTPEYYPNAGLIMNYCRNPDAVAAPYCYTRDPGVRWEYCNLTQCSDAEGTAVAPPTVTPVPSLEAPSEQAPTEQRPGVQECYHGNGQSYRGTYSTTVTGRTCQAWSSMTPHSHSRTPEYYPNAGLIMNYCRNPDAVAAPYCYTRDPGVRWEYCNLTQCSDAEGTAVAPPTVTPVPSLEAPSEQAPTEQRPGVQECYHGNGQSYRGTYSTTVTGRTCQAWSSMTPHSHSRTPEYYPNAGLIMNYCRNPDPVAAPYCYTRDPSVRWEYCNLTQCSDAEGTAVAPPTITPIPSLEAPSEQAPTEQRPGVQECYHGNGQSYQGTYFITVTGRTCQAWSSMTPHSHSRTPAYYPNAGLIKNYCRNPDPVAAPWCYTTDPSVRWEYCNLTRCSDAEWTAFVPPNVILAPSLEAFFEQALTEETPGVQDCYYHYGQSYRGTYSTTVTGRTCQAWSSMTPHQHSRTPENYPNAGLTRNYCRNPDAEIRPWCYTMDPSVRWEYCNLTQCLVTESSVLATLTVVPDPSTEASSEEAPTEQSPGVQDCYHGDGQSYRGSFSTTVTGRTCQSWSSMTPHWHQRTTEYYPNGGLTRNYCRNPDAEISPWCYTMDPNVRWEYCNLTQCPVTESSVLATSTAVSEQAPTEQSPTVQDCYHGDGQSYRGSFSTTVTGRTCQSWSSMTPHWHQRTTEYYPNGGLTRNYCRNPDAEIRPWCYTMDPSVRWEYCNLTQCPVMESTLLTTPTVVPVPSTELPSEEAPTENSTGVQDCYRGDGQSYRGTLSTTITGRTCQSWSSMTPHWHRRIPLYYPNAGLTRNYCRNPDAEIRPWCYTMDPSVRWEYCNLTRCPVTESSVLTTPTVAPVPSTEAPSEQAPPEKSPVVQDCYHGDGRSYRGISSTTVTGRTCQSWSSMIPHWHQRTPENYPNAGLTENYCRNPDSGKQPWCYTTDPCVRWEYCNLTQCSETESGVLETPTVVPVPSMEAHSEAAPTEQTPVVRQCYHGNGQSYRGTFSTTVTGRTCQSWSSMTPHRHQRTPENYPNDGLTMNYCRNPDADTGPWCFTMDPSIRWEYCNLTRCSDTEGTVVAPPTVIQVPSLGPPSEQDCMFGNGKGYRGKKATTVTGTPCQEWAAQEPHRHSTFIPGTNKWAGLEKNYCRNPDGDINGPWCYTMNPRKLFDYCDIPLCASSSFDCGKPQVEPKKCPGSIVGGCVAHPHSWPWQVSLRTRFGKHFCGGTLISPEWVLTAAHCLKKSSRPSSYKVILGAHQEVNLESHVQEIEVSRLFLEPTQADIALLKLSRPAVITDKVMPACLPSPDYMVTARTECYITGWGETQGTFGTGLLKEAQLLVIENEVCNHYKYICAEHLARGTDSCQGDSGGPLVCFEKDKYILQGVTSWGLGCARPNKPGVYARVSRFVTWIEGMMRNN

In this experiment the target is Lp(a) assembly in HepG2 cells overexpressing ApoA protein (Homo sapiens (Human), UniProt P08519). In words: ELISA assay on screening Lp(a) assembly inhibition. In kind it is cell-based. The note with it: HepG2 cells overexpressing ApoA protein, 24 h, ELISA of supernatant. The method, then:
Test Example 1 and Methods of ELISA Assay on Screening Lp(a) Assembly Inhibition
• 1) Preheated the culture media, DPBS, and pancreatin in a 37° C. water bath in advance. • 2) Digested cells with pancreatin, transferred the cell suspension to a 15 mL centrifuge tube, and centrifuged at 1000 rpm for 5 min. • 3) Resuspended the cells with culture media and transferred the cell suspension to a new T75 cell culture flask. • 4) Cultured at 37° C. in a 5% CO2 incubator.
• 1) Seeded HepG2 cells overexpressing of ApoA protein into a 96-well plate at 100 μL per well and incubated overnight for attachment. • 2) Replaced with fresh culture media the next day, then added diluted compounds, and cultured the cell plate in a 5% CO2, 37° C. incubator for 24 h.
• 1) Added 10 μL of 1.5 M EACA to each well. • 2) Centrifuged at 1000 rpm for 1 min, and transferred 100 μL of cell culture supernatant to a pre-coated ELISA plate.
• 1) Added 100 μL of capture antibody to each well of a pre-coated ELISA plate and incubated overnight at 25° C. • 2) Added 300 μL of washing solution to each well and washed 5 times for 1 min each time. • 3) Added 100 μL of blocking solution to each well and incubated at 25° C. for 2 h. • 4) Added 300 μL of washing solution to each well and washed 5 times for 1 min each time. • 5) Added 100 μL of sample to each well and incubated at 25° C. for 1 h. • 6) Added 300 μL of washing solution to each well and washed 5 times for 1 min each time. • 7) Added 100 μL of detection antibody to each well and incubated at 25° C. for 1 h. • 8) Added 300 μL of washing solution to each well and washed 5 times for 1 min each time. • 9) Added 100 μL substrate solution (Color Reagent A: Color Reagent B, 1:1) to each well and incubated for 20 min at 25° C. in the dark. • 10) Added […] of stop solution to each well, gently blowed and sucked several times with the pipette tip, and read within 5 min.
[formula] • X: cpd concentration • Y: inhibition % • Top and Bottom: Plateaus in same units as Y • log IC50: same log units as X • HillSlope: Slope factor or Hill slope
The IC50 is the point on the concentration scale where inhibition reaches its midpoint. The low end stands for greater potency in that assay, the high end for weaker potency in that assay. As for `O=C(O)C(Cc1cccc(C(=O)N(CCOc2cccc(C[C@H](C(=O)O)[C@H]3CCNC3)c2)Cc2cccc(C[C@H](C(=O)O)[C@H]3CCNC3)c2)c1)C1CCNC1` (stereo in doubt) [Compound 97, (S)-3-(3-((3-((S)-2-carboxy-2-((R)-pyrrolidin-3-yl)ethyl)-N-(2-(3-((S)-2-carboxy-2-((R)-pyrrolidin-3-yl)ethyl)phenoxy)ethyl)benzamido)methyl)phenyl)-2-((R)-pyrrolidin-3-yl)propanoic acid], the IC50 was 1.46 nM.

`O=C(Cc1cccc(CC(C(=O)O)C2CCNC2)c1)NCc1cccc(C[C@H](C(=O)O)[C@H]2CCNC2)c1` (stereo in doubt) [Compound 143, (S)-3-(3-(2-((3-((S)-2-carboxy-2-((R)-pyrrolidin-3-yl)ethyl)benzyl)amino)-2-oxoethyl)phenyl)-2-((R)-pyrrolidin-3-yl)propanoic acid] returned a 50% inhibitory concentration (IC50) of 3.81 nM. To `N[C@@H](CCCCN(Cc1cc(F)cc(C[C@H](C(=O)O)[C@H]2CCNC2)c1)Cc1cc(F)cc(C[C@H](C(=O)O)[C@H]2CCNC2)c1)C(=O)O` [Compound 5, (2S,2′S)-3,3′-(((((S)-5-amino-5-carboxypentyl)azanediyl)bis(methylene))bis(5-fluoro-3,1-phenylene))bis(2-((R)-pyrrolidin-3-yl)propanoic acid)] belongs 4.12 nM. The compound `O=C(O)[C@@H](Cc1cccc(CN(Cc2cccc(C[C@H](C(=O)O)[C@H]3CCNC3)c2)Cc2coc3ccc(C[C@H](C(=O)O)[C@H]4CCNC4)cc23)c1)[C@H]1CCNC1` [Compound 6, (2S,2′S)-3,3′-(((((5-((S)-2-carboxy-2-((R)-pyrrolidin-3-yl)ethyl)benzofuran-3-yl)methyl)azanediyl)bis(methylene))bis(3,1-phenylene))bis(2-((R)-pyrrolidin-3-yl)propanoic acid)] had an IC50 of 1.13 nM. Regarding `O=C(O)[C@@H](Cc1cccc(CN(Cc2cccc(C[C@H](C(=O)O)[C@H]3CCNC3)c2)Cc2cc3ccc(C[C@H](C(=O)O)[C@H]4CCNC4)cc3s2)c1)[C@H]1CCNC1` [Compound 11, (2S,2′S)-3,3′-(((((6-((S)-2-carboxy-2-((R)-pyrrolidin-3-yl)ethyl)benzo[b]thiophen-2-yl)methyl)azanediyl)bis(methylene))bis(3,1-phenylene))bis(2-((R)-pyrrolidin-3-yl)propanoic acid)], 0.89 nM corresponded to half-maximal inhibition (IC50). Next, `O=C(O)[C@@H](Cc1cccc(CN(Cc2cccc(C[C@H](C(=O)O)[C@H]3CCNC3)c2)C(=O)c2cc(F)cc(C[C@H](C(=O)O)[C@H]3CCNC3)c2)c1)[C@H]1CCNC1` [Compound 12, (2S,2′S)-3,3′-((((3-((S)-2-carboxy-2-((R)-pyrrolidin-3-yl)ethyl)-5-fluorobenzoyl)azanediyl)bis(methylene))bis(3,1-phenylene))bis(2-((R)-pyrrolidin-3-yl)propanoic acid)]: 1.17 nM; `O=C(O)[C@@H](Cc1ccc2occ(CN(Cc3coc4ccc(C[C@H](C(=O)O)[C@H]5CCNC5)cc34)Cc3coc4ccc(C[C@H](C(=O)O)[C@H]5CCNC5)cc34)c2c1)[C@H]1CCNC1` [Compound 47, (2S,2′S,2″S)-3,3′,3″-((nitrilotris(methylene))tris(benzofuran-3,5-diyl))tris(2-((R)-pyrrolidin-3-yl)propanoic acid)]: 1.03 nM; `O=C(O)[C@@H](Cc1ccc2scc(CN(Cc3csc4ccc(C[C@H](C(=O)O)[C@H]5CCNC5)cc34)Cc3csc4ccc(C[C@H](C(=O)O)[C@H]5CCNC5)cc34)c2c1)[C@H]1CCNC1` [Compound 49, (2S,2′S,2″S)-3,3′,3″-((nitrilotris(methylene))tris(benzo[b]thiophene-3,5-diyl))tris(2-((R)-pyrrolidin-3-yl)propanoic acid)]: 3.22 nM.

Regarding `O=C(O)[C@@H](Cc1cccc(CCN(CCc2cccc(C[C@H](C(=O)O)[C@H]3CCNC3)c2)CCc2cccc(C[C@H](C(=O)O)[C@H]3CCNC3)c2)c1)[C@H]1CCNC1` [Compound 65, (2S,2′S,2″S)-3,3′,3″-((nitrilotris(ethane-2,1-diyl))tris(benzene-3,1-diyl))tris(2-((R)-pyrrolidin-3-yl)propanoic acid)], half-maximal inhibition (IC50) required 0.87 nM. In turn, `O=C(O)[C@@H](Cc1ccc2occ(CCN(CCc3coc4ccc(C[C@H](C(=O)O)[C@H]5CCNC5)cc34)CCc3coc4ccc(C[C@H](C(=O)O)[C@H]5CCNC5)cc34)c2c1)[C@H]1CCNC1` [Compound 67, (2S,2′S,2″S)-3,3′,3″-((nitrilotris(ethane-2,1-diyl))tris(benzofuran-3,5-diyl))tris(2-((R)-pyrrolidin-3-yl)propanoic acid)] came in with an IC50 of 8.55 nM. Next, `O=C(O)[C@@H](Cc1cccc(CCN(CCOc2cccc(C[C@H](C(=O)O)[C@H]3CCNC3)c2)CCc2cccc(C[C@H](C(=O)O)[C@H]3CCNC3)c2)c1)[C@H]1CCNC1` [Compound 71, (2S,2′S)-3,3′-((((2-(3-((S)-2-carboxy-2-((R)-pyrrolidin-3-yl)ethyl)phenoxy)ethyl)azanediyl)bis(ethane-2,1-diyl))bis(3,1-phenylene))bis(2-((R)-pyrrolidin-3-yl)propanoic acid)]: 0.54 nM. As to `O=C(CN(CCOc1cccc(C[C@H](C(=O)O)[C@H]2CCNC2)c1)CC(=O)c1cccc(C[C@H](C(=O)O)[C@H]2CCNC2)c1)c1cccc(C[C@H](C(=O)O)[C@H]2CCNC2)c1` [Compound 80, (2S,2′S)-3,3′-((2,2′-((2-(3-((S)-2-carboxy-2-((R)-pyrrolidin-3-yl)ethyl)phenoxy)ethyl)azanediyl)bis(acetyl))bis(3,1-phenylene))bis(2-((R)-pyrrolidin-3-yl)propanoic acid)], the IC50 was found to be 2.31 nM.

For `O=C(O)[C@@H](Cc1cccc(CCN(CCc2cccc(C[C@H](C(=O)O)[C@H]3CCNC3)c2)C(=O)COc2cccc(C[C@H](C(=O)O)[C@H]3CCNC3)c2)c1)[C@H]1CCNC1` [Compound 81, (2S,2′S)-3,3′-((((2-(3-((S)-2-carboxy-2-((R)-pyrrolidin-3-yl)ethyl)phenoxy)acetyl)azanediyl)bis(ethane-2,1-diyl))bis(3,1-phenylene))bis(2-((R)-pyrrolidin-3-yl)propanoic acid)], half-maximal inhibition (IC50) required 0.85 nM. To `[2H]C([2H])(c1cccc(C[C@H](C(=O)O)[C@H]2CCNC2)c1)N(Cc1cccc(C[C@H](C(=O)O)[C@H]2CCNC2)c1)C([2H])([2H])c1cccc(C[C@H](C(=O)O)[C@H]2CCNC2)c1` [Compound 93, (2S,2′S)-3,3′-((((3-((S)-2-carboxy-2-((R)-pyrrolidin-3-yl)ethyl)benzyl)azanediyl)bis(methylene-d2))bis(3,1-phenylene))bis(2-((R)-pyrrolidin-3-yl)propanoic acid)] belongs 0.81 nM; to `[2H]C([2H])(c1cccc(C[C@H](C(=O)O)[C@H]2CCNC2)c1)N(Cc1cccc(C[C@H](C(=O)O)[C@H]2CCNC2)c1)Cc1cccc(C[C@H](C(=O)O)[C@H]2CCNC2)c1` [Compound 94, (2S,2′S)-3,3′-(((((3-((S)-2-carboxy-2-((R)-pyrrolidin-3-yl)ethyl)phenyl)methyl-d2)azanediyl)bis(methylene))bis(3,1-phenylene))bis(2-((R)-pyrrolidin-3-yl)propanoic acid)], 0.65 nM.
